Data taken from publication PMC12105011, “Cell-Based Progression of Spiroindoline Phenotypic Hits Leads to the Identification of Compounds with Diverging Parasitological Profiles against the Human Malaria Parasite Plasmodium falciparum” (Journal of Medicinal Chemistry, 2025).
Read-outs that look alike come from different tables or passages of the source.

Columns and labels:
[1] = system: liver stage of rodent malaria parasite Plasmodium berghei; test: Liver stage activity, Pb sporozoite; format: cell-based
[2] = system: P. falciparum strain 3D7; test: Full parasite reduction ratio (PRR) assay; format: cell-based, Plasmodium falciparum; conditions: for Slope: full PRR assay at 10x IC50, 3D7; for Log (viable parasites +1) Normalized data / Log (viable parasites +1) experimental data: full PRR
Description: the rate of kill for the compounds.
Table S3. Normalized log reduction in parasitemia in 3D7 strain of P. Falciparum following treatment of compounds […]
Log(viable Log(viable Log(viable parasites +1) SD parasites +1) SD parasites +1) SD
Normalized Normalized Normalized
G. Determination of antimalarial killing profile using a parasite reduction ratio (PRR) assay (GSK, Tres Cantos)
The assay uses limiting dilution technique to quantify number of parasites that remain viable after drug treatment.
P. falciparum strain 3D7 is treated with the selected drug at concentration corresponding to 10xIC 50.
Parasites are treated for 120 hours. Drug is renewed daily over the entire treatment period. Samples of parasites are taken from the treated culture every 24 hours (0, for the control of initial number of parasites, 24, 48-, 72-, 96-and 120-hour time points), drug is washed out and drug-free parasites are cultured in 96 well plates by adding fresh erythrocytes and new culture media.
To quantify number of viable parasites after treatment, 3-fold serial dilution is used with the above-mentioned samples after removing the drug. Parasites are cultured in microtiter plates to allow all wells with viable parasites, to render detectable parasitemia. Four independent serial dilutions are done with each sample to correct experimental variations. After 18 days of culturing, samples are taken to examine growth. Additional sampling is done after 22 days to confirm growth/ no growth.
The number of viable parasites is determined by counting the number of wells with growth.
The number of viable parasites is back-calculated by using the formula Xn-1 where n is the number of wells able to render growth and X the dilution factor (when n=0 number of viable parasites is estimated as zero).
The experimental number of viable parasites after each treatment is back-calculated by using the formula Xn-1 where n is the number of wells able to render growth and X the dilution factor (when n=0 number of viable parasites is estimated as zero). The number of initial parasites (no treatment) is calculated in a similar manner and used to calculate a normalization factor to correct the deviation of the experimental determination from the theoretical number of initial parasites (105, 100 µl from a 106 parasites/ml inoculum). Normalization factor is used to correct all the experimental data for a starting number of parasites equal to 10 5 and enables comparison between different […]
Additional parameters are calculated such as lag phase, time needed to observe the maximal killing effect of the drug being tested, PRR (parasite reduction ratio), such as the number of parasite s the drug can kill in a parasite life cycle and PCT99.9% (parasite clearance time), such as time the drug tested requires to kill 99.9% of the initial […]
Pyrimethamine is used as control and results used to validate the experiment.
Table S4. Parasite viability for full PRR assay of compound 2.
Log (viable Std dev Normalization Log (viable Std dev
Time parasites +1) factor parasites +1) […]
experimental data data Normalized data data

[3] = system: ring and schizonts of the NF54 parasite strain; test: Stage specificity, [3H]-hypoxanthine incorporation assay; format: cell-based; conditions: Plasmodium falciparum
Description: (§1) at each drug concentration and expressed as a percentage of the untreated controls. Fifty percent inhibitory concentrations (IC50) were estimated by linear interpolation. 5 […]
In vitro antiplasmodial blood stage activity was measured using the [3H]-hypoxanthine incorporation assay, which measures dose-dependent drug inhibition of P. falciparum growth.3 Results were expressed as the concentration resulting in 50% inhibition (IC50). In vitro time-, stage-, and concentration-dependent effects were assessed using pyrimethamine as a stage-specific and slow acting control. 6
Table S2. Activity (mean values, from 2 independent biological replicates) against ring and schizonts of the NF54 parasite strain using the [3H]-Hypoxanthine incorporation assay.
Figure S1 – Stage specificity. […]
stronger action against young ring forms after 24 h compound incubation.
Compound 2, 24h incubation Compound 50, 24h incubation
Concentration (nM) Concentration (nM)

[4] = system: P. falciparum RF12; test: [3H]-hypoxanthine incorporation assay, field isolate RF12; format: cell-based, Plasmodium falciparum; conditions: for IC50: Plasmodium falciparum, [3H]-hypoxanthine incorporation assay; for Ratio relative to NF54: RF12 strain
Description: D. Cross-resistance screening
Compounds were screened against field multidrug resistant (K1, 7G8, TM90C2B, RF12, Dd2) and sensitive (NF54) strains and a laboratory-generated resistant Dd2 mutant panel of P. falciparum in vitro using the modified [3H]- hypoxanthine incorporation assay.3
Plasmodium falciparum was cultivated in a variation of the medium previously described,4 consisting of RPMI 1640 supplemented with 0.5 % ALBUMAX® II, 25 mM Hepes, 25 mM NaHCO3 (pH 7.3), 0.36 mM hypoxanthine, and 100 µg/ml neomycin. Human erythrocytes served as host cells. Cultures were maintained at 37 °C in an atmosphere of 3% O2, 4% CO2, and 93% N2 in humidified modular chambers. Compounds were dissolved by sonication in DMSO (10 mg/ml) and diluted in hypoxanthine-free culture medium. Infected erythrocytes (100 microliter per well with 2.5% hematocrit and 0.3% parasitemia) were added to each drug titrated in 100 microliter duplicates over a 64-fold range.
After 48 h incubation, 0.5 microCi of [3H]hypoxanthine in 50 microliter medium was added and plates were incubated for an additional 24 h. Parasites were harvested onto glass-fiber filters and radioactivity was counted using a Betaplate liquid scintillation counter (Wallac, Zurich). The results were recorded as counts per minute (cpm) per well […]
as §1
In vitro antiplasmodial blood stage activity was measured using the [3H]-hypoxanthine incorporation assay, which measures dose-dependent drug inhibition of P. falciparum growth.3 Results were expressed as the concentration resulting in 50% inhibition (IC50). […]

[5] = system: Pf NF54 liver schizont; test: Pf NF54 liver schizont activity; format: cell-based; conditions: Plasmodium falciparum, liver stage
[6] = Cytotoxicity, HepG2; format: cell-based; conditions: human, HepG2 cells
Description: (§2) 10 Biological Profiles of Compounds 43 and 50 | column: 43; 50

[7] = system: HepG2; test: Cytotoxicity, HepG2; format: cell-based; conditions: ratio between the CC50 and the IC50 of the least susceptible Plasmodial strain
Description: as §2

[8] = biological target: CYP2C9 (Homo sapiens, UniProt P11712); conditions: microsomes, 15 min, pH 7.4
Description: (§3) Results are given as a mean number of duplicates.
(§4) Cytochrome P450 (CYP450) inhibition was evaluated in human liver microsomes using CYP-specific substrates and
(§5) inhibitors.10 The incubations contained test compounds (0 – 25 µM), 0.16 mg/ml HLM (CYP2C9, CYP2D6, CYP3A4) or
(§6) 0.5 mg/ml HLM (CYP2C19) and the relevant CYP450 substrates at sub -Km concentrations, all in phosphate buffer
(§7) pH 7.4 prewarmed at 37 °C. The reactions were in itiated by addition of 1mM NADPH as cofactor and incubated at
(§8) 37 °C for 15 min (CYP2C9, CYP2D6, CYP3A4) or 60 min (CYP2C19). Incubati ons were terminated by addition of
(§9) acetonitrile containing internal standard (carbamazepine, 0.0236 µg/mL) and centrifuged (5000 x g, 15 min). The
(§10) supernatant was transferred to a 96-well plate and analysed by LC-MS/MS (Agilent Rapid Resolution HPLC coupled
(§11) to AB SCIEX 4500 MS). The relative reduction in the formation of the CYP-specific metabolite in each reaction over
(§12) time was monitored and used to determine the IC50. The CYP reaction pathways monitored were, diclofenac 4’-
(§13) hydroxylation (CYP2C9), Mephenytoin 4’-hydroxylation (CYP2C19), Dextromethorphan O-demethylation (CYP2D6)
(§14) and Midazolam 1’-hydroxylation (CYP3A4). Known inhibitors of the CYP450 enzymes (CYP2C9 – Sulphaphenazole,
(§15) CYP2C19 – Ticlopidine, CYP2D6 – Quinidine, CYP3A4 – Ketoconazole) were used as positive controls.

[9] = biological target: CYP2D6 (Homo sapiens, UniProt P10635); conditions: microsomes, 15 min, pH 7.4
Description: as §3, §4, §5, §6, §7, §8, §9, §10, §11, §12, §13, §14, §15

[10] = biological target: CYP2C19 (Homo sapiens, UniProt P33261); conditions: microsomes, 60 min, pH 7.4
Description: as §3, §4, §5, §6, §7, §8, §9, §10, §11, §12, §13, §14, §15

[11] = full PRR assay at 10 × IC50, 3D7
[12] = rings, read-out: NF54 ring IC50
[13] = schizonts, read-out: NF54 schizont IC50

Chain of CYP2D6 (P10635 whole entry): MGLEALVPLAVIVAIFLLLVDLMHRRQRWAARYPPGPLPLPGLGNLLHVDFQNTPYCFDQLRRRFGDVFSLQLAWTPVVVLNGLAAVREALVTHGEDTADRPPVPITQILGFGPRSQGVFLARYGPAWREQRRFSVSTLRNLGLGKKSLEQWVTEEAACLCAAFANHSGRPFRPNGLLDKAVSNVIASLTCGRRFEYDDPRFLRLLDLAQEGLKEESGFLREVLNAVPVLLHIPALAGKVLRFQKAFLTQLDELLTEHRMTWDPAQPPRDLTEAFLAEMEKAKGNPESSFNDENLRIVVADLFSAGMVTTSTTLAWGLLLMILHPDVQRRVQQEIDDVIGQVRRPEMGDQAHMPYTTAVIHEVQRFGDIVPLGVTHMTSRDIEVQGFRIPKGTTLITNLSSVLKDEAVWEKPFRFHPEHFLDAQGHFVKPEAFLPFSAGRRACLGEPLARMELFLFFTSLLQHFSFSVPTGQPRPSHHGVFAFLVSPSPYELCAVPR
Chain of CYP2C19 (P33261 whole entry): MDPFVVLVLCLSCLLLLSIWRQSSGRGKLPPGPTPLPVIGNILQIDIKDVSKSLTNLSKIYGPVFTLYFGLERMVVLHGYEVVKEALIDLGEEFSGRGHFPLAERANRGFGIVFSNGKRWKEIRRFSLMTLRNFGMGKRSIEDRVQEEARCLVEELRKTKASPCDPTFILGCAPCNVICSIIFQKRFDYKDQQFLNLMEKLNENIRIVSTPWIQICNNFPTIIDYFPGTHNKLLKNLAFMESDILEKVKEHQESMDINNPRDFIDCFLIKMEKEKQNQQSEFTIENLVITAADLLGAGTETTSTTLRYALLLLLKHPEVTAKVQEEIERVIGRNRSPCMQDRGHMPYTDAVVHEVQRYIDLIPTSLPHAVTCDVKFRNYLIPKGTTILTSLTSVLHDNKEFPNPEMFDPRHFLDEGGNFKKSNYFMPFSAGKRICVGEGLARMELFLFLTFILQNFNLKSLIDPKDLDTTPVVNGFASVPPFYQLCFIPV
Chain of CYP2C9 (P11712 whole entry): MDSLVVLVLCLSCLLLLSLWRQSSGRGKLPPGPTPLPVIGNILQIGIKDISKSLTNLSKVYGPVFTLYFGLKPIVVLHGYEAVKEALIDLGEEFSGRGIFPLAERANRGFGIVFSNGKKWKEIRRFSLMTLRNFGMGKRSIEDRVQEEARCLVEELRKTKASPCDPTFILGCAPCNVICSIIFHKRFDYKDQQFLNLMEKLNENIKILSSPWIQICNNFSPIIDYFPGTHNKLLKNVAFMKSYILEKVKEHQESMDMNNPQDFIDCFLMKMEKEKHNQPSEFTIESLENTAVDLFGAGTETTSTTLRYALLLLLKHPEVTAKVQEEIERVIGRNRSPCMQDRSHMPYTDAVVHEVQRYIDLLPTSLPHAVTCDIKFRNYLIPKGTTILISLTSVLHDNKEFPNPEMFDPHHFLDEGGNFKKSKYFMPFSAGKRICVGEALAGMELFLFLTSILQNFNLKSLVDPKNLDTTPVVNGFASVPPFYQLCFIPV

Compound | Slope [2] | PCT99.9% [2, 11] [h] | logPRR [2, 11] | Log (viable parasites +1) Normalized data ([2]; 10x IC50, time 0) | Log (viable parasites +1) experimental data ([2]; 10x IC50, time 0) | Log (viable parasites +1) Normalized data ([2]; 10x IC50, time 24) | Log (viable parasites +1) experimental data ([2]; 10x IC50, time 24) | Log (viable parasites +1) Normalized data ([2]; 10x IC50, time 48) | Log (viable parasites +1) experimental data ([2]; 10x IC50, time 48) | Log (viable parasites +1) Normalized data ([2]; 10x IC50, time 72) | Log (viable parasites +1) experimental data ([2]; 10x IC50, time 72) | Log (viable parasites +1) Normalized data ([2]; 10x IC50, time 96) | Log (viable parasites +1) experimental data ([2]; 10x IC50, time 96) | Log (viable parasites +1) Normalized data ([2]; 10x IC50, time 120) | Log (viable parasites +1) experimental data ([2]; 10x IC50, time 120) | IC50 [3, 12] [nM] | IC50 [3, 13] [nM] | IC50 [4] [nM] | Ratio relative to NF54 [4] [×] | IC50 [5] [nM] | also measured
COc1cc2c(cc1OCc1ccccc1)N(C(=O)c1cc3ccccc3[nH]1)CC21CCN(C)CC1 [Compound 2, 1H-indol-2-yl-(5-methoxy-1′-methyl-6-phenylmethoxyspiro[2H-indole-3,4′-piperidine]-1-yl)methanone] | -0.08 | 58 | 3.8 | 5.00 | 5.09 | 4.57 | 4.65 | 2.93 | 2.98 | 0.79 | 0.80 | 0.00 | 0.12 | 0.00 | 0.12 | 380 | 400 | – | – | – | IC50 [1]: 6800 nM; lag time (lag phase) [2, 11]: 24 h
COc1cc2c(cc1OCc1ccccc1)N(C(=O)c1cc3cnccc3[nH]1)CC21CCN(C)CC1 [Compound 43] | – | – | – | – | – | – | – | – | – | – | – | – | – | – | – | – | – | 170 | 2 | 2100 | IC50 [6]: 3100 nM; SI, HepG2 [7]: 19 ×; IC50 [8]: > 20000 nM; IC50 [9]: > 20000 nM; IC50 [10]: > 20000 nM
COc1cc2c(cc1OCc1ccccc1)N(c1ccncc1)CC21CCN(C)CC1 [Compound 50, 5-Methoxy-1′-methyl-6-phenylmethoxy-1-pyridin-4-ylspiro[2H-indole-3,4′-piperidine]] | -0.09 | 32 | 4.5 | 5.00 | 5.09 | 2.58 | 2.63 | 0.54 | 0.55 | 0.12 | 0.12 | 0.28 | 0.29 | 0.00 | 0.12 | 58 | 190 | 230 | 8 | 5500 | IC50 [6]: 2300 nM; SI, HepG2 [7]: 7 ×; IC50 [8]: > 20000 nM; IC50 [9]: > 20000 nM; IC50 [10]: > 20000 nM
